Test results: ChEMBL document CHEMBL2146391, “Glucose uptake stimulatory effect of 4-hydroxypipecolic acid by increased GLUT 4 translocation in skeletal muscle cells” (Bioorg Med Chem Lett, 2012)
Active and inactive are the calls of the source. No cut-off for these calls is given here.

Tests used:
L6 [1] = assay: Induction of IRS-1 mRNA expression in rat L6-GLUT4myc myotubes at 25 uM after 16 hrs by semiquantitative RT-PCR analysis; assay type: functional, cell-based
L6 [2] = assay: Induction of GLUT4 translocation from intracellular compartment into plasma membrane of rat L6-GLUT4myc myotubes after 16 hrs by O-phenylenediamide based enzymatic assay; assay type: functional, cell-based
L6 [3] = assay: Cytotoxicity against rat L6-GLUT4myc myotubes assessed as change in protein level at 25 uM after 16 hrs; assay type: cell-based; settings: l6, 16 h
L6 [4] = assay: Cytotoxicity against rat L6-GLUT4myc myotubes assessed as cell viability at 25 uM after 16 hrs by MTT assay; assay type: cell-based; settings: l6, 16 h
L6 [5] = assay: Induction of GLUT4 translocation from intracellular compartment into plasma membrane of rat L6-GLUT4myc myotubes at 25 uM by O-phenylenediamide based enzymatic assay relative to control; assay type: functional, cell-based; settings: TDE = time-dependent effect
L6 [6] = assay: Induction of PKB mRNA expression in rat L6-GLUT4myc myotubes at 25 uM after 16 hrs by semiquantitative RT-PCR analysis; assay type: functional, cell-based
L6 [7] = assay: Induction of GLUT4 mRNA expression in rat L6-GLUT4myc myotubes at 25 uM after 16 hrs by semiquantitative RT-PCR analysis; assay type: functional, cell-based
L6 [8] = assay: Increase of insulin-stimulated GLUT4 translocation from intracellular compartment into plasma membrane of rat L6-GLUT4myc myotubes at 25 uM after 16 hrs by O-phenylenediamide based enzymatic assay; assay type: functional, cell-based
L6 [9] = assay: Induction of GLUT4 translocation from intracellular compartment into plasma membrane of rat L6-GLUT4myc myotubes at 10 uM after 16 hrs by O-phenylenediamide based enzymatic assay; assay type: functional, cell-based
L6 [10] = assay: Induction of GLUT4 translocation from intracellular compartment into plasma membrane of rat L6-GLUT4myc myotubes at 25 uM after 16 hrs by O-phenylenediamide based enzymatic assay relative to control; assay type: functional
L6 [11] = assay: Hypoglycemic activity in rat L6-GLUT4myc myotubes assessed as increase in 2-[3H]-deoxyglucose uptake at 25 uM after 16 hrs by scintillation counter relative to control; assay type: functional
L6 [12] = assay: Hypoglycemic activity in rat L6-GLUT4myc myotubes assessed as increase in 2-[3H]-deoxyglucose uptake at 5 uM after 16 hrs by scintillation counter; assay type: functional, cell-based
L6 [13] = assay: Increase of insulin-stimulated GLUT4 translocation from intracellular compartment into plasma membrane of rat L6-GLUT4myc myotubes at 25 uM after 16 hrs by O-phenylenediamide based enzymatic assay in presence of PI3K inhibitor wortmannin; assay type: functional, cell-based
L6 [14] = assay: Hypoglycemic activity in rat L6-GLUT4myc myotubes assessed as increase in 2-[3H]-deoxyglucose uptake after 16 hrs by scintillation counter; assay type: functional, cell-based

O=C(O)C1C[C@@H](O)CCN1 (some centres undefined)
Activity (L6 [1]): Active
Activity (L6 [2]): Dose-dependent effect
Activity (L6 [3]): Non-toxic
Activity (L6 [4]): Non-toxic
Activity (L6 [5]): tde
Activity (L6 [6]): inactive
Activity (L6 [7]): inactive
Activity (L6 [8]): Active
Activity (L6 [9]): Active
Activity (L6 [10]): 130%
fold change (FC) (L6 [11]): 1.25
Activity (L6 [12]): Active
Activity (L6 [13]): inactive
Activity (L6 [14]): Dose-dependent effect
